17 compounds from US10800754B2, “Heterocyclic amide compound” (TAKEDA PHARMACEUTICAL COMPANY LIMITED, priority 2016, dated 2020) can be followed below.

This experiment has as its target T1, human PRS protein (Homo sapiens, UniProt P07814).
T1 construct: to construct His-Avi-hEPRS (998-1512) expression plasmid; His tag (N); Avi tag (N); TEV cleavage site (ENLYFQ/GS, encoded by forward primer hEPRS-TEV-NheF) (N); made in house; host or cells: E. coli BL21(DE3)
T1 sequence (P07814 998-1512): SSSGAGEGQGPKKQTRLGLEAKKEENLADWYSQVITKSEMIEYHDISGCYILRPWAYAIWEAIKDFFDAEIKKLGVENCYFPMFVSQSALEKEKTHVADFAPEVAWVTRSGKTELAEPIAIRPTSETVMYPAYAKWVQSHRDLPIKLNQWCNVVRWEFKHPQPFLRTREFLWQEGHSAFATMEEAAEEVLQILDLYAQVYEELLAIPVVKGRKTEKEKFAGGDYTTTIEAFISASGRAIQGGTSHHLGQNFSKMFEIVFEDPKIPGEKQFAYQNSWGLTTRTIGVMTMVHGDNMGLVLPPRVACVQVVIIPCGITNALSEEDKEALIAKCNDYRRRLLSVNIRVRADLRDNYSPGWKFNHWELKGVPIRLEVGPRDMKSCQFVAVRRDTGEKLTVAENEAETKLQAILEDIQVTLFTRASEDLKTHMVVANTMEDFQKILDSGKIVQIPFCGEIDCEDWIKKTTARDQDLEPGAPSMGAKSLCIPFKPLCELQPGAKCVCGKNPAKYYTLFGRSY
The experiment can be described thus: PRS inhibitory activity (ATP/[32P]pyrophosphate exchange enzyme reaction). The format is biochemical. As to conditions: 300 nM test compound; recombinant human PRS (EPRS 998-1512); read-out: inhibitory rate (%) of PRS. The protocol: The PRS inhibitory activity of the compounds of the present invention was evaluated by the following method.
An expression plasmid of Catalytic Domain of human EPRS was obtained by PCR using human skeletal muscle cDNA Library (Takara Bio Inc.) as a template and 2 kinds of Primers 5′-[…]-3′ (hEPRS-TEV-NheF) (SEQ ID NO: 1) and 5′-[…]-3′ (hEPRS-St-Not-R) (SEQ ID NO: 2). PCR was performed using PrimeStar GXL DNA Polymerase (Takara Bio Inc.) and included (1) 98° C., 1 min, (2) cycles of 98° C., 10 sec, 65° C., 10 sec, 72° C., 1 min, and (3) reaction at 72° C., 1 min. This was cleaved with Nhe I and Not I (Takara Bio Inc.) and inserted using Ligation High (TOYOBO CO., LTD.) into the Nhe I/Not I site of pET21a (Novagen) with His-Avitag inserted thereinto. This was introduced into ECOS JM109 (NIPPON GENE CO., LTD.) to construct His-Avi-hEPRS (998-1512) expression plasmid.
Recombinant human PRS protein was prepared by transforming the His-Avi-hEPRS (998-1512) expression plasmid prepared above into ECOS Competent E. coli BL21(DE3) (NIPPON GENE CO., LTD.). Escherichia coli obtained by transformation was inoculated into 300 mL of LB medium (1% peptone, 0.5% yeast extract, 0.5% sodium chloride, 0.01% ampicillin) and cultured at 30° C. for 16 hr. The obtained culture medium was transferred into a jar culture tank charged with 6 L of the main fermentation medium (0.3% potassium dihydrogen phosphate, 0.6% disodium hydrogen phosphate, 0.1% ammonium chloride, 0.05% sodium chloride, 0.024% magnesium sulfate, 0.02% NEWPOL LB-625, 1.5% sorbitol, 1.5% casamino acid, 0.5% yeast extract, 0.01% ampicillin) and culturing was started at 37° C., quantity of airflow 5 L/min, stirring rotating speed 400 rpm. At the time point when the turbidity of the culture medium reached about 550 Klett units, the culture temperature was lowered to 16° C., isopropyl-β-D-thiogalactopyranoside (IPTG) was added to the final concentration 0.1 mM, and culturing was performed for another 16 hr to induce expression of human PRS. After completion of culturing, the culture medium was centrifuged at 5,000 rpm for 10 min. The obtained human PRS expressing Escherichia coli was suspended in a buffer containing 50 mM Tris-HCl (pH 8.0), 150 mM NaCl, 1 mM DTT, 5 U/ml Benzonase, 20 mM Imidazole and sonicated using Sonifier (BRANSON). The homogenate was centrifuged (33,000×G, 60 min, Beckman Coulter), the obtained supernatant was subjected to adsorption by passage through Ni-NTA Superflow (QIAGEN) column equilibrated in advance with 50 mM Tris-HCl (pH 8.0), 300 mM NaCl, 1 mM DTT, and elution was performed with a buffer containing 50 mM Tris-HCl (pH 8.0), 300 mM NaCl, 1 mM DTT, 250 mM Imidazole. Furthermore, gel filtration was performed using […] equilibrated in advance with a buffer containing 50 mM Tris-HCl (pH 8.0), 150 mM NaCl, 1 mM DTT, 10% glycerol to give purified human PRS protein. The protein concentration was measured using BCA Protein Assay Kit (PIERCE) and BSA as the standard.
A test compound was dissolved in 5 μL of an assay buffer (50 mM Tris-HCl (pH 7.5), 20 mM KCl, 1 mM DTT, 0.01% Tween 20) and incubated for 60 min with 5 μL of 40 nM human PRS protein dissolved in the assay buffer containing 40 mM MgCl2. An enzyme reaction of the human PRS protein was started by adding 10 μL of a substrate solution containing 300 μM ATP, 160 μM L-Proline, 400 μM pyrophosphate, [^32P]pyrophosphate (PerkinElmer, Waltham, Mass.) prepared to 1 MBq/mL. After incubation at room temperature for 30 min, the reaction was discontinued by adding 50 μL of discontinuation/washing solution (1M HCl, 200 mM sodium pyrophosphate) to the reaction mixture. The reaction solution was transferred to a filter plate (Merck Millipore, Billerica, Mass.) previously added with 200 μL of charcoal solution (0.5% HCl solution containing 10% charcoal (w/v)). […]

`Cc1cc(N2CCC(C)(C)C2=O)cc(NC(=O)Cc2cccc(-c3cnn(C)c3)c2)n1` [Example 49, N-(4-(3,3-dimethyl-2-oxopyrrolidin-1-yl)-6-methylpyridin-2-yl)-2-(3-(1-methyl-1H-pyrazol-4-yl)phenyl)acetamide]: the inhibition at 0.3 µM is 83%.
With `Cc1cc(N2CC(C)C(C#N)(C3CC3)C2=O)cc(NC(=O)Cc2ccccc2)n1` (centres unmarked) [Example 54, N-(4-(3-cyano-3-cyclopropyl-4-methyl-2-oxopyrrolidin-1-yl)-6-methylpyridin-2-yl)-2-phenylacetamide] the figure was 77%; with `Cn1cc(-c2cccc(CC(=O)Nc3cc(N4CC[C@@](C#N)(C5CC5)C4=O)cc(C(F)(F)F)n3)c2)cn1` [Example 61, N-(4-((3S)-3-cyano-3-cyclopropyl-2-oxopyrrolidin-1-yl)-6-(trifluoromethyl)-pyridin-2-yl)-2-(3-(1-methyl-1H-pyrazol-4-yl)phenyl)acetamide], 84%; with `COc1cc(N2CC[C@@](C#N)(C3CC3)C2=O)cc(NC(=O)Cc2cccc(-c3cnn(C)c3)c2)n1` [Example 62, N-(4-((3S)-3-cyano-3-cyclopropyl-2-oxopyrrolidin-1-yl)-6-methoxypyridin-2-yl)-2-(3-(1-methyl-1H-pyrazol-4-yl)phenyl)acetamide], 92%.
For `N#C[C@@]1(C2CC2)CCN(c2ccnc(NC(=O)Cc3cccc(-c4cnn(CC(N)=O)c4)c3)c2)C1=O` [Example 69, 2-(3-(1-(2-amino-2-oxoethyl)-1H-pyrazol-4-yl)phenyl)-N-(4-((3S)-3-cyano-3-cyclopropyl-2-oxopyrrolidin-1-yl)pyridin-2-yl)acetamide], the inhibition at 0.3 µM was found to be 99%.
With `COC(=O)Cn1cc(-c2cccc(CC(=O)Nc3cc(N4CC[C@@](C#N)(C5CC5)C4=O)ccn3)c2)cn1` [Example 73, methyl (4-(3-(2-((4-((3S)-3-cyano-3-cyclopropyl-2-oxopyrrolidin-1-yl)pyridin-2-yl)amino)-2-oxoethyl)phenyl)-1H-pyrazol-1-yl)acetate] the figure was 99%; with `N#C[C@@]1(C2CC2)CCN(c2ccnc(NC(=O)Cc3cccc(-c4cnn(CC5CCCC5)c4)c3)c2)C1=O` [Example 75, N-(4-((3S)-3-cyano-3-cyclopropyl-2-oxopyrrolidin-1-yl)pyridin-2-yl)-2-(3-(1-(cyclopentylmethyl)-1H-pyrazol-4-yl)phenyl)acetamide], 97%.
For the compound `N#C[C@@]1(C2CC2)CCN(c2ccnc(NC(=O)Cc3cccc(-c4cnn(CC5CCCO5)c4)c3)c2)C1=O` (stereo partly drawn) [Example 76, N-(4-((3S)-3-cyano-3-cyclopropyl-2-oxopyrrolidin-1-yl)pyridin-2-yl)-2-(3-(1-(tetrahydrofuran-2-ylmethyl)-1H-pyrazol-4-yl)phenyl)acetamide], the inhibition at 0.3 µM was found to be 98%.
`N#C[C@@]1(C2CC2)CCN(c2ccnc(NC(=O)Cc3cccc(-c4cnn(CCn5cccn5)c4)c3)c2)C1=O` [Example 80, N-(4-((3S)-3-cyano-3-cyclopropyl-2-oxopyrrolidin-1-yl)pyridin-2-yl)-2-(3-(1-(2-(1H-pyrazol-1-yl)ethyl)-1H-pyrazol-4-yl)phenyl)acetamide]: the inhibition at 0.3 µM came out at 98%.
With `N#C[C@@]1(C2CC2)CCN(c2ccnc(NC(=O)Cc3cccc(-c4cnn(CCn5ccnc5)c4)c3)c2)C1=O` [Example 81, N-(4-((3S)-3-cyano-3-cyclopropyl-2-oxopyrrolidin-1-yl)pyridin-2-yl)-2-(3-(1-(2-(1H-imidazol-1-yl)ethyl)-1H-pyrazol-4-yl)phenyl)acetamide] the figure was 97%; with `N#C[C@@]1(C2CC2)CCN(c2ccnc(NC(=O)Cc3cccc(-c4cnn(CC5CCCCC5)c4)c3)c2)C1=O` [Example 82, N-(4-((3S)-3-cyano-3-cyclopropyl-2-oxopyrrolidin-1-yl)pyridin-2-yl)-2-(3-(1-(cyclohexylmethyl)-1H-pyrazol-4-yl)phenyl)acetamide], 92%; with `COCCOCCn1cc(-c2cccc(CC(=O)Nc3cc(N4CC[C@@](C#N)(C5CC5)C4=O)ccn3)c2)cn1` [Example 86, N-(4-((3S)-3-cyano-3-cyclopropyl-2-oxopyrrolidin-1-yl)pyridin-2-yl)-2-(3-(1-(2-(2-methoxyethoxy)ethyl)-1H-pyrazol-4-yl)phenyl)acetamide], 96%.
As for `N#C[C@@]1(C2CC2)CCN(c2ccnc(NC(=O)Cc3cccc(-c4cnn(CCc5ccccc5)c4)c3)c2)C1=O` [Example 88, N-(4-((3S)-3-cyano-3-cyclopropyl-2-oxopyrrolidin-1-yl)pyridin-2-yl)-2-(3-(1-(2-phenylethyl)-1H-pyrazol-4-yl)phenyl)acetamide], the inhibition at 0.3 µM was 97%.
Take `CS(=O)(=O)CCn1cc(-c2cccc(CC(=O)Nc3cc(N4CC[C@@](C#N)(C5CC5)C4=O)ccn3)c2)cn1` [Example 89, N-(4-((3S)-3-cyano-3-cyclopropyl-2-oxopyrrolidin-1-yl)pyridin-2-yl)-2-(3-(1-(2-(methylsulfonyl)ethyl)-1H-pyrazol-4-yl)phenyl)acetamide]: the inhibition at 0.3 µM was 100%.
As to `N#C[C@@]1(C2CC2)CCN(c2ccnc(NC(=O)Cc3cccc(-c4cnn(CC(C(F)(F)F)C(F)(F)F)c4)c3)c2)C1=O` [Example 92, N-(4-((3S)-3-cyano-3-cyclopropyl-2-oxopyrrolidin-1-yl)pyridin-2-yl)-2-(3-(1-(3,3,3-trifluoro-2-(trifluoromethyl)propyl)-1H-pyrazol-4-yl)phenyl)acetamide], the inhibition at 0.3 µM is 93%.
Take `N#C[C@@]1(C2CC2)CCN(c2ccnc(NC(=O)Cc3cccc(-c4cnn(CC(F)(F)C(F)(F)F)c4)c3)c2)C1=O` [Example 96, N-(4-((3S)-3-cyano-3-cyclopropyl-2-oxopyrrolidin-1-yl)pyridin-2-yl)-2-(3-(1-(2,2,3,3,3-pentafluoropropyl)-1H-pyrazol-4-yl)phenyl)acetamide]: the inhibition at 0.3 µM is 96%.
On to `N#C[C@@]1(C2CC2)CCN(c2cc(NC(=O)Cc3cccc(Cl)c3)ncn2)C1=O` [Example 126, 2-(3-chlorophenyl)-N-(6-((3S)-3-cyano-3-cyclopropyl-2-oxopyrrolidin-1-yl)pyrimidin-4-yl)acetamide], for which the inhibition at 0.3 µM was 57%.
